System: 233499-124-R-J3-PDC complex spheroid viability
Experiment: Anticancer human tumor 233499-124-R-J3-PDC patient-derived colon adenocarcinoma cell line growth inhibition [CLK]
Conditions: for IC50: curve of first compound; for viability, T/C: stronger effect = lower value
Method in brief: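 Patient-derived tumor cells grown as complex spheroids with HUVEC endothelial cells and mesenchymal stem cells, treated with drug combinations. Concentrations descend in half-log steps from near clinical Cmax, or from 10 microM if Cmax unknown.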

[1] = second compound 0.0316 µM, first compound 0.0316 µM
[2] = second compound 0.0316 µM, first compound 0.1 µM
[3] = second compound 0.0316 µM, first compound 0.316 µM
[4] = second compound 0.0316 µM, first compound 1 µM
[5] = second compound 0.0316 µM, first compound 3.16 µM
[6] = second compound 0.0316 µM, first compound 10 µM
[7] = second compound 0.1 µM, first compound 0.0316 µM
[8] = second compound 0.1 µM, first compound 0.1 µM
[9] = second compound 0.1 µM, first compound 0.316 µM
[10] = second compound 0.1 µM, first compound 1 µM
[11] = second compound 0.1 µM, first compound 3.16 µM
[12] = second compound 0.1 µM, first compound 10 µM
[13] = second compound 0.316 µM, first compound 0.0316 µM
[14] = second compound 0.316 µM, first compound 0.1 µM
[15] = second compound 0.316 µM, first compound 0.316 µM
[16] = second compound 0.316 µM, first compound 1 µM
[17] = second compound 0.316 µM, first compound 3.16 µM
[18] = second compound 0.316 µM, first compound 10 µM
[19] = second compound 1 µM, first compound 0.0316 µM
[20] = second compound 1 µM, first compound 0.1 µM
[21] = second compound 1 µM, first compound 0.316 µM
[22] = second compound 1 µM, first compound 1 µM
[23] = second compound 1 µM, first compound 3.16 µM
[24] = second compound 1 µM, first compound 10 µM
[25] = second compound 3.16 µM, first compound 0.0316 µM
[26] = second compound 3.16 µM, first compound 0.1 µM
[27] = second compound 3.16 µM, first compound 0.316 µM
[28] = second compound 3.16 µM, first compound 1 µM
[29] = second compound 3.16 µM, first compound 3.16 µM
[30] = second compound 3.16 µM, first compound 10 µM
[31] = second compound 10 µM, first compound 0.0316 µM
[32] = second compound 10 µM, first compound 0.1 µM
[33] = second compound 10 µM, first compound 0.316 µM
[34] = second compound 10 µM, first compound 1 µM
[35] = second compound 10 µM, first compound 3.16 µM
[36] = second compound 10 µM, first compound 10 µM
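Further: spheroids exposed to the drug combinations for seven days.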
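Wherever viability, T/C is given: percent viability relative to DMSO vehicle control wells taken as 100%.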

Compound: CCCS(=O)(=O)Nc1ccc(F)c(C(=O)c2c[nH]c3ncc(-c4ccc(Cl)cc4)cc23)c1F + CN1CCN(c2cc(C(=O)Nc3cc4cc(-c5cnn(C)c5)ccc4cn3)ccn2)CC1
- IC50 (second compound 0.0316 µM): > 10 µM
- IC50 (second compound 0.1 µM): > 10 µM
- IC50 (second compound 0.316 µM): 8.04 µM
- IC50 (second compound 1 µM): < 0.0316 µM
- IC50 (second compound 3.16 µM): < 0.0316 µM
- IC50 (second compound 10 µM): < 0.0316 µM
- viability, T/C [1]: 103%
- viability, T/C [2]: 98.2%
- viability, T/C [3]: 101%
- viability, T/C [4]: 99.8%
- viability, T/C [5]: 97.2%
- viability, T/C [6]: 92.4%
- viability, T/C [7]: 98.5%
- viability, T/C [8]: 103%
- viability, T/C [9]: 103%
- viability, T/C [10]: 106%
- viability, T/C [11]: 109%
- viability, T/C [12]: 92.2%
- viability, T/C [13]: 96.7%
- viability, T/C [14]: 96.9%
- viability, T/C [15]: 91.8%
- viability, T/C [16]: 89.3%
- viability, T/C [17]: 99.9%
- viability, T/C [18]: 39.5%
- viability, T/C [19]: 1.29%
- viability, T/C [20]: 4.3%
- viability, T/C [21]: 5.03%
- viability, T/C [22]: 0.45%
- viability, T/C [23]: 0.8%
- viability, T/C [24]: 1.4%
- viability, T/C [25]: 0.42%
- viability, T/C [26]: 0.62%
- viability, T/C [27]: 1.12%
- viability, T/C [28]: 0.53%
- viability, T/C [29]: 0.63%
- viability, T/C [30]: 0.92%
- viability, T/C [31]: 0.24%
- viability, T/C [32]: 0.32%
- viability, T/C [33]: 1.24%
- viability, T/C [34]: 0.33%
- viability, T/C [35]: 0.36%
- viability, T/C [36]: 0.85%

Compound: COc1ccc([C@@H](O)c2cc(-c3ncnc4cc(N5CCOCC5)ccc34)c(F)cc2Cl)nn1 + CN1CCN(c2cc(C(=O)Nc3cc4cc(-c5cnn(C)c5)ccc4cn3)ccn2)CC1
- IC50 (second compound 0.0316 µM): > 10 µM
- IC50 (second compound 0.1 µM): 9.83 µM
- IC50 (second compound 0.316 µM): 8.5 µM
- IC50 (second compound 1 µM): < 0.0316 µM
- IC50 (second compound 3.16 µM): < 0.0316 µM
- IC50 (second compound 10 µM): < 0.0316 µM
- viability, T/C [1]: 101%
- viability, T/C [2]: 99.3%
- viability, T/C [3]: 102%
- viability, T/C [4]: 105%
- viability, T/C [5]: 83%
- viability, T/C [6]: 56.7%
- viability, T/C [7]: 98.7%
- viability, T/C [8]: 95%
- viability, T/C [9]: 105%
- viability, T/C [10]: 93.7%
- viability, T/C [11]: 78.9%
- viability, T/C [12]: 49.5%
- viability, T/C [13]: 80.5%
- viability, T/C [14]: 92.5%
- viability, T/C [15]: 96%
- viability, T/C [16]: 88.3%
- viability, T/C [17]: 87.7%
- viability, T/C [18]: 43.8%
- viability, T/C [19]: 0.59%
- viability, T/C [20]: 0.54%
- viability, T/C [21]: 0.4%
- viability, T/C [22]: 0.92%
- viability, T/C [23]: 0.89%
- viability, T/C [24]: 0.79%
- viability, T/C [25]: 0.54%
- viability, T/C [26]: 0.7%
- viability, T/C [27]: 0.68%
- viability, T/C [28]: 0.83%
- viability, T/C [29]: 0.94%
- viability, T/C [30]: 1.93%
- viability, T/C [31]: 0.36%
- viability, T/C [32]: 0.41%
- viability, T/C [33]: 0.43%
- viability, T/C [34]: 0.46%
- viability, T/C [35]: 0.73%
- viability, T/C [36]: 1.14%
